In patent US9534010B2, “Stable indole-3-propionate salts of S-adenosyl-L-methionine” (HEBERT SAM-E LLC, priority 2013, dated 2017):

Experiments:
[1] = Storage stability at room temperature, checked by UV absorption spectra and HPLC; assay type: physicochemical; conditions: for maximum absorption peak at 420 nm (toxic degradation products of incorporated IPA): UV absorption spectra, initial and after eight months at room temperature; for SAMe degradation products by HPLC or UV absorption spectra: stored for eight months at room temperature
Text: Stability of the IPA salt can be assessed by the method disclosed in Bottiglieri, T. (1990), Biomed Chromatogr, 4(6):239-41.
Ultraviolet-visible light absorption spectra were obtained for the product of Synthetic Example 1 and the product of Synthetic Example 2 (see FIG. 1 and FIG. 2, respectively). An ultraviolet-visible light absorption spectrum was also obtained at the same time for a blank sample (see FIG. 5) for control purposes.
The product of Synthetic Example 1 and the product of Synthetic Example 2 were then stored for eight months at room temperature, after which ultraviolet-visible light absorption spectra were obtained for the stored products (see […] and FIG. 4). An ultraviolet-visible light absorption spectrum was also obtained at the same time for a blank sample (see FIG. 6) for control purposes.
This is in stark contrast to the unstable nature of, for example, previously known salts of SAMe, such as the tosylate or 1,4-butanedisulfonate salts, the stability of which can be determined in the same manner as described herein.

Caco-2 cells = experiment: In vitro Caco-2 permeability assay (apical to basolateral); conditions: for mean A->B Papp: analyte SAMe, test compound 2 mM, A side pH 6.5, B side pH 7.4, 2 hours
Protocol: The following in vitro permeability assay was conducted to determine the efficacy of certain absorption enhancers in increasing the permeability of a IPA salt of SAMe, or a pharmaceutically acceptable salt thereof, of the invention. See Stewart, B H, et al. (1995) “Comparison of intestinal permeabilities determined in multiple in vitro and in situ models: Relationship to absorption in humans,” Pharm. Res. 12:693.
The test compound was the IPA salt of SAMe 1,4-butanedisulfonate (the product of Synthetic Example 2) (SAMeIPA). The concentration of the test compound used in the assay was 2 mM.
The signal was optimized for each test formulation by ESI positive or negative ionization mode. An MS2 scan or a SIM scan was used to optimize the fragmenter voltage and a product ion analysis was used to identify the best fragment for analysis, and the collision energy was optimized using a product ion or MRM scan. An ionization ranking was assigned indicating the formulation's ease of ionization.
Samples were analyzed by LC/MS/MS using an Agilent 6410 mass spectrometer coupled with an Agilent 1200 HPLC and a CTC PAL chilled autosampler, all controlled by MassHunter software (Agilent). After separation on a C18 reverse phase HPLC column (Agilent, Waters, or equivalent) using an acetonitrile-water gradient system, peaks were analyzed by mass spectrometry (MS) using ESI ionization in MRM mode.
The permeability of SAMe and IPA were measured independently. […]
For Apical to Basolateral (A->B) permeability, the test formulation was added to the apical (A) side and amount of permeation is determined on the basolateral (B) side; for Basolateral to Apical (B>A) permeability, the test formulation was added to the B side and the amount of permeation was determined on the A side. […]
To verify the Caco-2 cell monolayers were properly formed, aliquots of the cell buffers were analyzed by fluorescence to determine the transport of the impermeable dye Lucifer Yellow.
Data was expressed as apparent permeability (Papp). […]

[2] = test system: alcoholic liver cirrhosis; conditions: oral SAMe, compared with a placebo treated group; cited from earlier work

Compound	maximum absorption peak at 420 nm (toxic degradation products of incorporated IPA) [1]	SAMe degradation products by HPLC or UV absorption spectra [1]	mean A->B Papp (Caco-2 cells)	mean A->B Papp (Caco-2 cells; listed as S-adenosyl-L-methionine 1,4-butanedisulfonate indole-3-propionate salt)	fold increase in S-adenosyl-L-methionine permeability (Caco-2 cells; using trimethyl chitosan homopolymer as the absorption enhancer) [fold]	overall mortality and/or progression to liver transplant [2] [%]
S-Adenosyl-L-methionine p-toluenesulfonate indole-3-propionate [Synthetic Example 1]	no maximum absorption peaks at 420 nm were noted	No SAMe degradation products were detected				
S-Adenosyl-L-methionine 1,4-butanedisulfonate indole-3-propionate [SAMeIPA]	no maximum absorption peaks at 420 nm were noted	No SAMe degradation products were detected	0.20	low	37.5	
C[S+](CC[C@H](N)C(=O)O)C[C@H]1O[C@@H](n2cnc3c(N)ncnc32)[C@H](O)[C@@H]1O (stereo partly drawn) [SAMe, S-adenosyl-L-methionine]						12
